Data reported in PubChem BioAssay AID1963828 (Molecular Pharmacology Branch, DTP, NCI, 2024).

System: 991263-137-R1-J2-PDC complex spheroid viability
Assay: Anticancer human tumor 991263-137-R1-J2-PDC patient-derived colon adenocarcinoma cell line growth inhibition [POLQ]
Conditions: for IC50: curve of first compound; for viability, T/C: stronger effect = lower value
Outline: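 Patient-derived tumour cells were co-cultured with HUVEC and mesenchymal stem cells as multicellular spheroids at 37 °C. They were treated with POLQ inhibitors (novobiocin, ART-558, RP6685) alone or combined with other agents. Top concentrations were at or near clinical Cmax (otherwise 10 microM; SN-38 at 1 microM), decreasing in half-log steps.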

[1] = second compound 0.0316 µM, first compound 0.0316 µM
[2] = second compound 0.0316 µM, first compound 0.1 µM
[3] = second compound 0.0316 µM, first compound 0.316 µM
[4] = second compound 0.0316 µM, first compound 1 µM
[5] = second compound 0.0316 µM, first compound 3.16 µM
[6] = second compound 0.0316 µM, first compound 10 µM
[7] = second compound 0.1 µM, first compound 0.0316 µM
[8] = second compound 0.1 µM, first compound 0.1 µM
[9] = second compound 0.1 µM, first compound 0.316 µM
[10] = second compound 0.1 µM, first compound 1 µM
[11] = second compound 0.1 µM, first compound 3.16 µM
[12] = second compound 0.1 µM, first compound 10 µM
[13] = second compound 0.316 µM, first compound 0.0316 µM
[14] = second compound 0.316 µM, first compound 0.1 µM
[15] = second compound 0.316 µM, first compound 0.316 µM
[16] = second compound 0.316 µM, first compound 1 µM
[17] = second compound 0.316 µM, first compound 3.16 µM
[18] = second compound 0.316 µM, first compound 10 µM
[19] = second compound 1 µM, first compound 0.0316 µM
[20] = second compound 1 µM, first compound 0.1 µM
[21] = second compound 1 µM, first compound 0.316 µM
[22] = second compound 1 µM, first compound 1 µM
[23] = second compound 1 µM, first compound 3.16 µM
[24] = second compound 1 µM, first compound 10 µM
[25] = second compound 3.16 µM, first compound 0.0316 µM
[26] = second compound 3.16 µM, first compound 0.1 µM
[27] = second compound 3.16 µM, first compound 0.316 µM
[28] = second compound 3.16 µM, first compound 1 µM
[29] = second compound 3.16 µM, first compound 3.16 µM
[30] = second compound 3.16 µM, first compound 10 µM
[31] = second compound 10 µM, first compound 0.0316 µM
[32] = second compound 10 µM, first compound 0.1 µM
[33] = second compound 10 µM, first compound 0.316 µM
[34] = second compound 10 µM, first compound 1 µM
[35] = second compound 10 µM, first compound 3.16 µM
[36] = second compound 10 µM, first compound 10 µM
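Note: spheroids exposed to compounds for 7 days before readout.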
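Throughout, for viability, T/C: 100% = DMSO vehicle control viability.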

C#Cc1c(F)ccc2cc(O)cc(-c3ncc4c(N5CC6CCC(C5)N6)nc(OCC56CCCN5CC(F)C6)nc4c3F)c12 (stereo not given) + Nc1ccc(C#CCN(C(=O)Cc2ncc(C(F)(F)F)cc2C(F)(F)F)c2ccc(F)cc2)nn1
IC50 (second compound 0.0316 µM): > 10 µM
IC50 (second compound 0.1 µM): > 10 µM
IC50 (second compound 0.316 µM): > 10 µM
IC50 (second compound 1 µM): > 10 µM
IC50 (second compound 3.16 µM): > 10 µM
IC50 (second compound 10 µM): > 10 µM
viability, T/C [1]: 104%
viability, T/C [2]: 111%
viability, T/C [3]: 99.6%
viability, T/C [4]: 102%
viability, T/C [5]: 105%
viability, T/C [6]: 88%
viability, T/C [7]: 103%
viability, T/C [8]: 108%
viability, T/C [9]: 96.5%
viability, T/C [10]: 102%
viability, T/C [11]: 103%
viability, T/C [12]: 92%
viability, T/C [13]: 103%
viability, T/C [14]: 99.8%
viability, T/C [15]: 99.8%
viability, T/C [16]: 102%
viability, T/C [17]: 105%
viability, T/C [18]: 108%
viability, T/C [19]: 97.5%
viability, T/C [20]: 95.2%
viability, T/C [21]: 107%
viability, T/C [22]: 86.8%
viability, T/C [23]: 106%
viability, T/C [24]: 96.1%
viability, T/C [25]: 102%
viability, T/C [26]: 105%
viability, T/C [27]: 104%
viability, T/C [28]: 112%
viability, T/C [29]: 123%
viability, T/C [30]: 98.7%
viability, T/C [31]: 100%
viability, T/C [32]: 98.2%
viability, T/C [33]: 93.4%
viability, T/C [34]: 101%
viability, T/C [35]: 87.6%
viability, T/C [36]: 80.4%

CC1COCCN1c1cc(C2(O)CC3CCC(C2)O3)c2cnn(-c3ccn[nH]3)c2n1 (stereo not given) + Nc1ccc(C#CCN(C(=O)Cc2ncc(C(F)(F)F)cc2C(F)(F)F)c2ccc(F)cc2)nn1
IC50 (second compound 0.0316 µM): 1.97 µM
IC50 (second compound 0.1 µM): 1.83 µM
IC50 (second compound 0.316 µM): 1.97 µM
IC50 (second compound 1 µM): 1.81 µM
IC50 (second compound 3.16 µM): 1.25 µM
IC50 (second compound 10 µM): 0.882 µM
viability, T/C [1]: 105%
viability, T/C [2]: 104%
viability, T/C [3]: 83%
viability, T/C [4]: 62.2%
viability, T/C [5]: 42.5%
viability, T/C [6]: 30.5%
viability, T/C [7]: 88.2%
viability, T/C [8]: 97.1%
viability, T/C [9]: 80.2%
viability, T/C [10]: 59%
viability, T/C [11]: 43.2%
viability, T/C [12]: 30.8%
viability, T/C [13]: 109%
viability, T/C [14]: 108%
viability, T/C [15]: 89.9%
viability, T/C [16]: 63.4%
viability, T/C [17]: 40.8%
viability, T/C [18]: 33.1%
viability, T/C [19]: 110%
viability, T/C [20]: 101%
viability, T/C [21]: 81.5%
viability, T/C [22]: 61.5%
viability, T/C [23]: 38.9%
viability, T/C [24]: 32.7%
viability, T/C [25]: 96.8%
viability, T/C [26]: 88.7%
viability, T/C [27]: 77.4%
viability, T/C [28]: 52.8%
viability, T/C [29]: 36.5%
viability, T/C [30]: 31%
viability, T/C [31]: 78.3%
viability, T/C [32]: 82.1%
viability, T/C [33]: 67.3%
viability, T/C [34]: 45.7%
viability, T/C [35]: 36.4%
viability, T/C [36]: 24.5%

CCCS(=O)(=O)Nc1ccc(F)c(C(=O)c2c[nH]c3ncc(-c4ccc(Cl)cc4)cc23)c1F + Nc1ccc(C#CCN(C(=O)Cc2ncc(C(F)(F)F)cc2C(F)(F)F)c2ccc(F)cc2)nn1
IC50 (second compound 0.0316 µM): > 10 µM
IC50 (second compound 0.1 µM): > 10 µM
IC50 (second compound 0.316 µM): > 10 µM
IC50 (second compound 1 µM): > 10 µM
IC50 (second compound 3.16 µM): > 10 µM
IC50 (second compound 10 µM): > 10 µM
viability, T/C [1]: 114%
viability, T/C [2]: 98.2%
viability, T/C [3]: 103%
viability, T/C [4]: 107%
viability, T/C [5]: 117%
viability, T/C [6]: 102%
viability, T/C [7]: 97.6%
viability, T/C [8]: 101%
viability, T/C [9]: 97.2%
viability, T/C [10]: 110%
viability, T/C [11]: 103%
viability, T/C [12]: 103%
viability, T/C [13]: 105%
viability, T/C [14]: 114%
viability, T/C [15]: 108%
viability, T/C [16]: 98.7%
viability, T/C [17]: 128%
viability, T/C [18]: 95.1%
viability, T/C [19]: 93.9%
viability, T/C [20]: 102%
viability, T/C [21]: 112%
viability, T/C [22]: 117%
viability, T/C [23]: 117%
viability, T/C [24]: 107%
viability, T/C [25]: 117%
viability, T/C [26]: 97.3%
viability, T/C [27]: 111%
viability, T/C [28]: 93.2%
viability, T/C [29]: 111%
viability, T/C [30]: 115%
viability, T/C [31]: 90.2%
viability, T/C [32]: 112%
viability, T/C [33]: 95.7%
viability, T/C [34]: 104%
viability, T/C [35]: 115%
viability, T/C [36]: 116%

CCc1cc2c(N3CCc4c(cc(Cn5ccnc5)cc4-c4cn(C)nc4C(F)(F)F)C3=O)cc(C)nc2c(OC)n1 + Nc1ccc(C#CCN(C(=O)Cc2ncc(C(F)(F)F)cc2C(F)(F)F)c2ccc(F)cc2)nn1
IC50 (second compound 0.0316 µM): > 10 µM
IC50 (second compound 0.1 µM): > 10 µM
IC50 (second compound 0.316 µM): > 10 µM
IC50 (second compound 1 µM): > 10 µM
IC50 (second compound 3.16 µM): > 10 µM
IC50 (second compound 10 µM): > 10 µM
viability, T/C [1]: 99.3%
viability, T/C [2]: 104%
viability, T/C [3]: 107%
viability, T/C [4]: 98.7%
viability, T/C [5]: 89.8%
viability, T/C [6]: 92.2%
viability, T/C [7]: 105%
viability, T/C [8]: 99.9%
viability, T/C [9]: 102%
viability, T/C [10]: 98.2%
viability, T/C [11]: 109%
viability, T/C [12]: 96.9%
viability, T/C [13]: 102%
viability, T/C [14]: 112%
viability, T/C [15]: 103%
viability, T/C [16]: 103%
viability, T/C [17]: 87.7%
viability, T/C [18]: 104%
viability, T/C [19]: 107%
viability, T/C [20]: 107%
viability, T/C [21]: 93.2%
viability, T/C [22]: 90.5%
viability, T/C [23]: 104%
viability, T/C [24]: 93%
viability, T/C [25]: 94.6%
viability, T/C [26]: 99.9%
viability, T/C [27]: 98.6%
viability, T/C [28]: 96.6%
viability, T/C [29]: 95.6%
viability, T/C [30]: 83.9%
viability, T/C [31]: 94.6%
viability, T/C [32]: 103%
viability, T/C [33]: 98.2%
viability, T/C [34]: 92.7%
viability, T/C [35]: 94.9%
viability, T/C [36]: 93.2%

Cn1ncnc1[C@H]1c2n[nH]c(=O)c3cc(F)cc(c23)N[C@@H]1c1ccc(F)cc1 + Nc1ccc(C#CCN(C(=O)Cc2ncc(C(F)(F)F)cc2C(F)(F)F)c2ccc(F)cc2)nn1
IC50 (second compound 0.0316 µM): > 0.1 µM
IC50 (second compound 0.1 µM): > 0.1 µM
IC50 (second compound 0.316 µM): > 0.1 µM
IC50 (second compound 1 µM): > 0.1 µM
IC50 (second compound 3.16 µM): > 0.1 µM
IC50 (second compound 10 µM): > 0.1 µM
viability, T/C (second compound 0.0316 µM, first compound 0.000316 µM): 106%
viability, T/C (second compound 0.0316 µM, first compound 0.001 µM): 97.1%
viability, T/C (second compound 0.0316 µM, first compound 0.00316 µM): 99.6%
viability, T/C (second compound 0.0316 µM, first compound 0.01 µM): 98.8%
viability, T/C [1]: 106%
viability, T/C [2]: 94%
viability, T/C (second compound 0.1 µM, first compound 0.000316 µM): 99.1%
viability, T/C (second compound 0.1 µM, first compound 0.001 µM): 102%
viability, T/C (second compound 0.1 µM, first compound 0.00316 µM): 95.2%
viability, T/C (second compound 0.1 µM, first compound 0.01 µM): 107%
viability, T/C [7]: 106%
viability, T/C [8]: 110%
viability, T/C (second compound 0.316 µM, first compound 0.000316 µM): 93.7%
viability, T/C (second compound 0.316 µM, first compound 0.001 µM): 95.1%
viability, T/C (second compound 0.316 µM, first compound 0.00316 µM): 94.2%
viability, T/C (second compound 0.316 µM, first compound 0.01 µM): 105%
viability, T/C [13]: 109%
viability, T/C [14]: 82.9%
viability, T/C (second compound 1 µM, first compound 0.000316 µM): 96.8%
viability, T/C (second compound 1 µM, first compound 0.001 µM): 103%
viability, T/C (second compound 1 µM, first compound 0.00316 µM): 112%
viability, T/C (second compound 1 µM, first compound 0.01 µM): 109%
viability, T/C [19]: 104%
viability, T/C [20]: 94.5%
viability, T/C (second compound 3.16 µM, first compound 0.000316 µM): 101%
viability, T/C (second compound 3.16 µM, first compound 0.001 µM): 92%
viability, T/C (second compound 3.16 µM, first compound 0.00316 µM): 98.3%
viability, T/C (second compound 3.16 µM, first compound 0.01 µM): 97.7%
viability, T/C [25]: 101%
viability, T/C [26]: 112%
viability, T/C (second compound 10 µM, first compound 0.000316 µM): 99.3%
viability, T/C (second compound 10 µM, first compound 0.001 µM): 106%
viability, T/C (second compound 10 µM, first compound 0.00316 µM): 97.1%
viability, T/C (second compound 10 µM, first compound 0.01 µM): 103%
viability, T/C [31]: 101%
viability, T/C [32]: 110%
